What was measured:
[1] = Stress Stability study of Polymorphic Form Alpha (PXRD after stress); format: physicochemical
[2] = Stress Stability study of Polymorphic Form RK2 (XRPD after stress); format: physicochemical

Row | PXRD ([1]; 75% RH, 15 h) | PXRD ([1]; 90% RH, 15 h) | PXRD ([1]; Drying at 30° C., 3 h) | PXRD ([1]; Drying at 70° C., 3 h) | PXRD ([1]; Drying at 100° C., 3 h) | PXRD ([1]; Grinding, 10 min) | PXRD ([1]; Hexane Slurry) | PXRD ([1]; Pressure study (17 Kg/cm2; 15 min)) | XRPD pattern after subjecting to various stress conditions ([1]; various stress conditions as mentioned in the Table 1) | XRPD ([2]; 50% RH, 12 h) | XRPD ([2]; 75% RH, 12 h) | XRPD ([2]; 90% RH, 12 h) | XRPD ([2]; Drying at 100° C., 3 h) | XRPD ([2]; Drying at 150° C., 3 h) | XRPD ([2]; MTBE Slurry, 12 h) | XRPD ([2]; Micronization study) | XRPD ([2]; Pressure study (Pressure: 17.5 Kg/cm^2)) | XRPD pattern after subjecting to various stress conditions ([2]; various stress conditions as mentioned in the Table 2) | SMILES
1 | Form Alpha | Form Alpha | Form Alpha | Form Alpha | Form Alpha | Form Alpha | Form Alpha | Form Alpha | stable | – | – | – | – | – | – | – | – | – | Cc1occc(=O)c1[O-].Cc1occc(=O)c1[O-].Cc1occc(=O)c1[O-].[Fe+3] [Polymorphic Form Alpha, 3-hydroxy-2-methyl-4H-pyrane-4-one iron (III) complex (3:1)]
2 | – | – | – | – | – | – | – | – | – | Form RK2 | Form RK2 | Form RK2 | Form RK2 | Form RK2 | Form RK2 | Form RK2 | Form RK2 | stable | Cc1occc(=O)c1[O-].Cc1occc(=O)c1[O-].Cc1occc(=O)c1[O-].[Fe+3] [Polymorphic Form RK2]
